Experimental data taken from US9296758B2, “2-quinolinyl-acetic acid derivatives as HIV antiviral compounds” (GILEAD SCIENCES, INC., priority 2010, dated 2016).

System: HIV-IIIb
Experiment: Test A: Antiviral Assays in MT4 Cells
Type: cell-based
Conditions: MT-4 cells infected with HIV-IIIb (0.004 m.o.i.), 5 days of incubation, CellTiter-Glo chemiluminescence readout
Outline: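 MT-4 cells pre-infected with HIV-IIIb (0.004 m.o.i.) or mock-infected, 2000 cells per well, were exposed to 10 three-fold serial compound dilutions in quadruplicate in RPMI 1640 with 10% FBS. After 5 days at 37° C, cell viability read by CellTiter-Glo chemiluminescence.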

[1] = Human immunodeficiency virus 1, IIIB, MT4, 120 h

SMILES	EC50 [1] [nM]	EC50 [nM]
Cc1cc2nc(-c3cn[nH]c3)ccc2c(-c2ccc(Cl)cc2)c1[C@H](OC(C)(C)C)C(=O)O [Compound 77, (S)-2-tert-butoxy-2-(5-(4-chlorophenyl)-7-methyl-2-(1H-pyrazol-4-yl)quinolin-6-yl)acetic acid]	135	
Cc1cc2nc(-c3ccccn3)ccc2c(-c2ccc(Cl)cc2)c1[C@H](OC(C)(C)C)C(=O)O [Compound 79, (S)-2-tert-butoxy-2-(5-(4-chlorophenyl)-7-methyl-2-(pyridin-2-yl)quinolin-6-yl)acetic acid]	86	
Cc1cc2nc(-c3cncn3C)ccc2c(-c2ccc(Cl)cc2)c1[C@H](OC(C)(C)C)C(=O)O [Compound 82, (S)-2-tert-Butoxy-2-(5-(4-chlorophenyl)-7-methyl-2-(1-methyl-1H-imidazol-5-yl)quinolin-6-yl)acetic acid]	171	
Cc1cc2nc(-c3cn(C)cn3)ccc2c(-c2ccc(Cl)cc2)c1[C@H](OC(C)(C)C)C(=O)O [Compound 86, (S)-2-tert-butoxy-2-(5-(4-chlorophenyl)-7-methyl-2-(1-methyl-1H-imidazol-4-yl)quinolin-6-yl)acetic acid]	78	
Cc1cc2nc(-c3cncnc3)ccc2c(-c2ccc(Cl)cc2)c1[C@H](OC(C)(C)C)C(=O)O [Compound 87, (S)-2-tert-Butoxy-2-(5-(4-chlorophenyl)-7-methyl-2-(pyrimidin-5-yl)quinolin-6-yl)acetic acid]	175	
Cc1cc2nc(-c3ccnnc3)ccc2c(-c2ccc3c4c(ccnc24)CCO3)c1[C@H](OC(C)(C)C)C(=O)O [Compound 88, (S)-2-tert-butoxy-2-((R)-5-(2,3-dihydropyrano[4,3,2-de]quinolin-7-yl)-7-methyl-2-(pyridazin-4-yl)quinolin-6-yl)acetic acid]	514	
Cc1ccc2c(-c3ccc4c(c3Cl)NCCO4)c([C@H](OC(C)(C)C)C(=O)O)c(C)cc2n1 [Compound 89, (S)-2-tert-Butoxy-2-((R)-5-(5-chloro-3,4-dihydro-2H-benzo[b][1,4]oxazin-6-yl)-2,7-dimethylquinolin-6-yl)acetic acid]		42
Cc1cc2nc(C(C)C)ccc2c(-c2ccc(Cl)cc2)c1[C@H](OC(C)(C)C)C(=O)O [Compound 90, (S)-2-tert-butoxy-2-(5-(4-chlorophenyl)-2-isopropyl-7-methylquinolin-6-yl)acetic acid]	67	
Cc1cc2nc(-n3ccnc3)ccc2c(-c2ccc(Cl)cc2)c1[C@H](OC(C)(C)C)C(=O)O [Compound 91, (S)-2-tert-Butoxy-2-(5-(4-chlorophenyl)-2-(1H-imidazol-1-yl)-7-methylquinolin-6-yl)acetic acid]	73	
Cc1cc2nc(N(C)CC(C)C)ccc2c(-c2ccc3c4c(ccnc24)CCO3)c1[C@H](OC(C)(C)C)C(=O)O [Compound 92, (S)-2-tert-butoxy-2-((R)-5-(2,3-dihydropyrano[4,3,2-de]quinolin-7-yl)-2-(isobutyl(methyl)amino)-7-methylquinolin-6-yl)acetic acid]	300	
CCN(C)c1ccc2c(-c3ccc4c5c(ccnc35)CCO4)c([C@H](OC(C)(C)C)C(=O)O)c(C)cc2n1 [Compound 93, (S)-2-tert-Butoxy-2-((R)-5-(2,3-dihydropyrano[4,3,2-de]quinolin-7-yl)-2-(ethyl(methyl)amino)-7-methylquinolin-6-yl)acetic acid]	94	
Cc1cc2nc(N3CCCC3)ccc2c(-c2ccc3c4c(ccnc24)CCO3)c1[C@H](OC(C)(C)C)C(=O)O [Compound 94, (S)-2-tert-butoxy-2-((R)-5-(2,3-dihydropyrano[4,3,2-de]quinolin-7-yl)-7-methyl-2-(pyrrolidin-1-yl)quinolin-6-yl)acetic acid]	149	
Cc1cc2nc(N(C)C)ccc2c(-c2ccc3c4c(ccnc24)CCO3)c1[C@H](OC(C)(C)C)C(=O)O [Compound 96, (S)-2-tert-butoxy-2-((R)-5-(2,3-dihydropyrano[4,3,2-de]quinolin-7-yl)-2-(dimethylamino)-7-methylquinolin-6-yl)acetic acid]	37	
